Paper PMC9370283, “New Quinoxaline-Based Derivatives as PARP-1 Inhibitors: Design, Synthesis, Antiproliferative, and Computational Studies” (Molecules, 2022)
Where “and” joins values, the source holds several entries; their conditions need not be identical. Equal values may be shown once. Read-outs that look alike come from different tables or passages of the source.

Legend:
PARP-1 = target: T1, PARP-1 (Homo sapiens, UniProt P09874); assay: colorimetric 96-well PARP-1 assay kit (BPS Bioscience); assay type: biochemical; details: for IC50: read-out: IC50 (mean ± SEM) PARP-1
T1 construct: purchased BPS Bioscience 80580

MDA-MB-436 = assay: in vitro cytotoxicity, MTT assay, MDA-MB-436; details: for % viability MDA-MB-436: MTT lab report; for IC50: read-out: IC50 (mean ± SEM) MDA-MB-436; for SI: MDA-MB-436, matches IC50 WI-38 / IC50 MDA-MB-436
WI-38 = assay: cytotoxicity against normal cells, MTT assay, WI-38; assay type: cell-based; details: Homo sapiens, normal cell line, read-out: IC50 (mean ± SEM) WI-38
Description: It has been reported that the frequency and severity of the side effects on normal healthy cells at therapeutic levels are deemed to be critical factors that distinguish different anticancer drugs from each other. […]
to the wells designated as “Blank”. The amount of PARP-1 required for the assay was then calculated. The reaction was initiated by adding 20 µL of diluted PARP-1 en zy me to the wells designated “Positive Control” and “Test Inhibitor Control”. The strip wells were incubated at room temperature for 1 hou r. The strip wells were then wash ed three times with 200 µL of PBST buffer.
Then, 50 µL of 50 times diluted Streptavidin-HRP with blocking buffer was added to each well, and the strips were further incubated at room temperature for 30 min. After washing the wells three times with 200 µL of PBST buffer, HRP colorimetric substrate was added to each well, and the plate was incubated at room temperature until a blue color was developed in the positive control well. Then, the reaction was quenched with 100 µL per well of 2 M sulfuric acid. Carrier solvent (DMSO 5%, v/v) was used as a negative control. All compounds including Ol ap arib were t ested at 5 concentrations (100, 10, 1, 0.1, and 0.01 µM). The optical density (OD) of each well was measured spectrophotometrically at 450 nm with an ELISA microplate reader (ChroMate-4300, FL, USA). The IC50 values were calculated according to the equation for Boltzmann sigmoidal concentration-response curves using the nonlin ear regression fitting model (GraphPad Prism Version 8). All assays were performed in triplicate in 3 repeated experiments. The obtained data are presented as means standard error of the means from 3 independent repeats (n = 3).
4.3.In vitro anticancer screening
The cell lines were purchased from the American Type Culture collection as follows:
Breast Cancer cell lines (MDA-MB-436) and WI38. Cytotoxic activity screening was performed using MTT assay. Exponentially, cells were placed in 10^4 cells/ well for 24 h, and then add fresh med ium containing different concen trations of the tested sample. Serial two-fold dilutions of the tested sample were added using a multichannel pipette. Moreover, all cells were cultivated at 37 °C, with 5% CO2 and 95% humidity. Also, incubation of control cells occurred at 3 7 ° C . […] Rinse the wells using water until no stain. After that, add 30% g lacial acetic acid to all wells with shaking plates on a Microplate reader (TECAN, Inc.) to measure the absorbance, using a test wavelength of 490 nm. Besides, compare the treated samples with the control cell. The cytotoxicity was estimated by IC50 in (μg /mL), the concentration that inhibits 50% of the growth of the examined cell.

[1] = mutant BRCA1 breast cancer cells, MTT

T1 sequence (P09874 whole entry): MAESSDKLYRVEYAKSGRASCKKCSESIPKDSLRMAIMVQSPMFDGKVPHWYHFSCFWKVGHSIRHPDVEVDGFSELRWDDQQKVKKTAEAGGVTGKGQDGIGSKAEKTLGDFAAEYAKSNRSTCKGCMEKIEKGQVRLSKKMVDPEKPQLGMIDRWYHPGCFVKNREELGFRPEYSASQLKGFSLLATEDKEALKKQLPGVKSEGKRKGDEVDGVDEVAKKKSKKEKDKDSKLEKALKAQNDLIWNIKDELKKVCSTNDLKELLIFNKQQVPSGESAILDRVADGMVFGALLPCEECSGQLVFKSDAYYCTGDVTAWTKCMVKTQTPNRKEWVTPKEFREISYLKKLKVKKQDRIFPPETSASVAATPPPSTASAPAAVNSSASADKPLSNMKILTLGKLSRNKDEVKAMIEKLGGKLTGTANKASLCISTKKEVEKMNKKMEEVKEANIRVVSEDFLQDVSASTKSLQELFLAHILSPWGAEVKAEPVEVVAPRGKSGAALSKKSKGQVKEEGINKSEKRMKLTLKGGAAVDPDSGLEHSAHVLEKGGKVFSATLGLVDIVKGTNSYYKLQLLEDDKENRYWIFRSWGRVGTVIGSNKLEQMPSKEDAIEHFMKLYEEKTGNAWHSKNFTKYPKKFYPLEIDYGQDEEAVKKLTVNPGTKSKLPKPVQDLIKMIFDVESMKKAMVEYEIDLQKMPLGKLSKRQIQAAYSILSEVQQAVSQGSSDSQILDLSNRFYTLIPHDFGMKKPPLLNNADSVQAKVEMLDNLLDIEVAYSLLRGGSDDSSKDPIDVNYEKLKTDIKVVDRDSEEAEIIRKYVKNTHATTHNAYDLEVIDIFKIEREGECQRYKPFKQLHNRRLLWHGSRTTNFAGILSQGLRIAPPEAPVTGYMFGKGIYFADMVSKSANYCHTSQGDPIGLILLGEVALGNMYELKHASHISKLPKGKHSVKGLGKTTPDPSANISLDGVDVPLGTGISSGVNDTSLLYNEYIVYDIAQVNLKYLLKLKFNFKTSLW

NNS(=O)(=O)c1ccc2[nH]c(=O)c(=O)[nH]c2c1 [Compound 3, 2,3-Dioxo-1,2,3,4-tetrahydroquinoxaline-6-sulfonohydrazide]
melting point: 285 to 287 °C | fold less PARP-1 inhibitory activity than reference drug Olaparib (PARP-1; ratio of IC50 values): 3 fold | IC50 (PARP-1): 12.9 ± 4.73 nM

Cc1cc(O)n(S(=O)(=O)c2ccc3[nH]c(=O)c(=O)[nH]c3c2)n1 [Compound 4, 6-((5-Hydroxy-3-methyl-1H-pyrazol-1-yl)sulfonyl)-1,4-dihydroquinoxaline-2,3-dione]
% viability MDA-MB-436 (MDA-MB-436; log conc. 0.193 (1.6uM)): 69.76% | % viability MDA-MB-436 (MDA-MB-436; log conc. 0.796 (6.3uM)): 60.12% | % viability MDA-MB-436 (MDA-MB-436; log conc. 1.398 (25uM)): 51.83% | % viability MDA-MB-436 (MDA-MB-436; log conc. 2 (100uM)): 42.01% | % viability MDA-MB-436 (MDA-MB-436; log conc. -0.409 (0.4uM)): 81.83% | IC50 (MDA-MB-436; [1]): 30300 ± 1780 nM | fold less PARP-1 inhibitory activity than reference drug Olaparib (PARP-1; ratio of IC50 values): ~2 fold | IC50 (PARP-1): 8.73 ± 0.44 nM

O=C1CC(=O)N(S(=O)(=O)c2ccc3[nH]c(=O)c(=O)[nH]c3c2)N1 [Compound 6, 6-((3,5-Dioxopyrazolidin-1-yl)sulfonyl)-1,4-dihydroquinoxaline-2,3-dione]
melting point: 270 to 272 °C | fold less PARP-1 inhibitory activity than reference drug Olaparib (PARP-1; ratio of IC50 values): ~3 fold | IC50 (PARP-1): 13.3 ± 0.68 nM

O=C1CCC(=O)N1NS(=O)(=O)c1ccc2[nH]c(=O)c(=O)[nH]c2c1 [Compound 7a, N-(2,5-dioxopyrrolidin-1-yl)-2,3-dioxo-1,2,3,4-tetrahydroquinoxaline-6-sulfonamide]
melting point: 292 to 294 °C | IC50 (PARP-1): 57.1 ± 2.91 nM

O=C1C=CC(=O)N1NS(=O)(=O)c1ccc2[nH]c(=O)c(=O)[nH]c2c1 [Compound 7b, N-(2,5-dioxo-2,5-dihydro-1H-pyrrol-1-yl)-2,3-dioxo-1,2,3,4-tetrahydroquinoxaline-6-sulfonamide]
melting point: 295 to 297 °C | IC50 (PARP-1): 35.8 ± 1.8 nM

O=C1c2ccccc2C(=O)N1NS(=O)(=O)c1ccc2[nH]c(=O)c(=O)[nH]c2c1 [Compound 7c, N-(1,3-dioxoisoindolin-2-yl)-2,3-dioxo-1,2,3,4-tetrahydroquinoxaline-6-sulfonamide]
melting point: 207 to 209 °C | IC50 (PARP-1): 43.4 ± 0.1 nM

COc1ccc(NC(=S)NNS(=O)(=O)c2ccc3[nH]c(=O)c(=O)[nH]c3c2)cc1 [Compound 8a, 2-((2,3-Dioxo-1,2,3,4-tetrahydroquinoxalin-6-yl)sulfonyl)-N-(4-methoxyphenyl) Hydrazine-1-carbothioamide]
SI (MDA-MB-436): 6.58 | % viability MDA-MB-436 (MDA-MB-436; log conc. 0.193 (1.6uM)): 61.23% | % viability MDA-MB-436 (MDA-MB-436; log conc. 0.796 (6.3uM)): 53.52% | % viability MDA-MB-436 (MDA-MB-436; log conc. 1.398 (25uM)): 43.91% | % viability MDA-MB-436 (MDA-MB-436; log conc. 2 (100uM)): 35.79% | % viability MDA-MB-436 (MDA-MB-436; log conc. -0.409 (0.4uM)): 73.41% | IC50 (MDA-MB-436; [1]): 10700 ± 630 nM | IC50 (WI-38): 70460 ± 430 nM | fold higher PARP-1 inhibitory activity than Olaparib (PARP-1; ratio of IC50 values): ~2 fold | IC50 (PARP-1): 2.31 ± 0.3 nM

O=C(NC(=S)NNS(=O)(=O)c1ccc2[nH]c(=O)c(=O)[nH]c2c1)c1ccccc1 [Compound 8b, N-(2-((2,3-dioxo-1,2,3,4-tetrahydroquinoxalin-6-yl)sulfonyl)hydrazine-1-carbonothioyl)benzamide]
melting point: 265 to 267 °C | fold less PARP-1 inhibitory activity than reference drug Olaparib (PARP-1; ratio of IC50 values): 2.5 fold | IC50 (PARP-1): 11.1 ± 0.56 nM

COc1ccc(-n2c(=O)cc(O)n(NS(=O)(=O)c3ccc4[nH]c(=O)c(=O)[nH]c4c3)c2=S)cc1 [Compound 9a, N-(6-hydroxy-3-(4-methoxyphenyl)-4-oxo-2-thioxo-3,4-dihydropyrimidin-1(2H)-yl)-2,3-dioxo-1,2,3,4-tetrahydroquinoxaline-6-sulfonamide]
melting point: 205 to 207 °C | IC50 (PARP-1): 57.4 ± 2.9 nM

O=C(c1ccccc1)n1c(=O)cc(O)n(NS(=O)(=O)c2ccc3[nH]c(=O)c(=O)[nH]c3c2)c1=S [Compound 9b, N-(3-benzoyl-6-hydroxy-4-oxo-2-thioxo-3,4-dihydropyrimidin-1(2H)-yl)-2,3-dioxo-1,2,3,4-tetrahydroquinoxaline-6-sulfonamide]
melting point: 270 to 272 °C | IC50 (PARP-1): 35.7 ± 1.82 nM

COc1ccc(-n2c(C)csc2=NNS(=O)(=O)c2ccc3[nH]c(=O)c(=O)[nH]c3c2)cc1 [Compound 10a, N′-(3-(4-methoxyphenyl)-4-methylthiazol-2(3H)-ylidene)-2,3-dioxo-1,2,3,4-tetrahydroquinoxaline-6-sulfonohydrazide]
melting point: 130 to 132 °C | IC50 (PARP-1): 21.6 ± 1.1 nM

Cc1csc(=NNS(=O)(=O)c2ccc3[nH]c(=O)c(=O)[nH]c3c2)n1C(=O)c1ccccc1 [Compound 10b, N’-(3-benzoyl-4-methylthiazol-2(3H)-ylidene)-2,3-dioxo-1,2,3,4-tetrahydroquinoxaline-6-sulfonohydrazide]
SI (MDA-MB-436): 7.86 | % viability MDA-MB-436 (MDA-MB-436; log conc. 0.193 (1.6uM)): 65.24% | % viability MDA-MB-436 (MDA-MB-436; log conc. 0.796 (6.3uM)): 52.38% | % viability MDA-MB-436 (MDA-MB-436; log conc. 1.398 (25uM)): 43.29% | % viability MDA-MB-436 (MDA-MB-436; log conc. 2 (100uM)): 32.38% | % viability MDA-MB-436 (MDA-MB-436; log conc. -0.409 (0.4uM)): 72.68% | IC50 (MDA-MB-436; [1]): 9620 ± 560 nM | IC50 (WI-38): 75660 ± 510 nM | IC50 (PARP-1): 6.35 ± 0.32 nM

COc1ccc(-n2c(C)c(C(C)=O)sc2=NNS(=O)(=O)c2ccc3[nH]c(=O)c(=O)[nH]c3c2)cc1 [Compound 11a, N’-(5-acetyl-3-(4-methoxyphenyl)-4-methylthiazol-2(3H)-ylidene)-2,3-dioxo-1,2,3,4-tetrahydroquinoxaline-6-sulfonohydrazide]
melting point: 185 to 187 °C | IC50 (PARP-1): 19.4 ± 0.99 nM

CC(=O)c1sc(=NNS(=O)(=O)c2ccc3[nH]c(=O)c(=O)[nH]c3c2)n(C(=O)c2ccccc2)c1C [Compound 11b, N’-(5-acetyl-3-benzoyl-4-methylthiazol-2(3H)-ylidene)-2,3-dioxo-1,2,3,4-tetrahydro Quinoxaline-6-sulfonohydrazide]
SI (MDA-MB-436): 6.96 | % viability MDA-MB-436 (MDA-MB-436; log conc. 0.193 (1.6uM)): 62.03% | % viability MDA-MB-436 (MDA-MB-436; log conc. 0.796 (6.3uM)): 55.11% | % viability MDA-MB-436 (MDA-MB-436; log conc. 1.398 (25uM)): 44.77% | % viability MDA-MB-436 (MDA-MB-436; log conc. 2 (100uM)): 35.26% | % viability MDA-MB-436 (MDA-MB-436; log conc. -0.409 (0.4uM)): 73.47% | IC50 (MDA-MB-436; [1]): 11500 ± 670 nM | IC50 (WI-38): 80100 ± 820 nM | IC50 (PARP-1): 8.25 ± 0.42 nM

COc1ccc(N2C(=O)CSC2=NNS(=O)(=O)c2ccc3[nH]c(=O)c(=O)[nH]c3c2)cc1 [Compound 12a, N’-(3-(4-methoxyphenyl)-4-oxothiazolidin-2-ylidene)-2,3-dioxo-1,2,3,4-tetrahydro quinoxaline-6-sulfonohydrazide]
melting point: 292 to 294 °C | IC50 (PARP-1): 36.1 ± 1.84 nM

O=C1CSC(=NNS(=O)(=O)c2ccc3[nH]c(=O)c(=O)[nH]c3c2)N1C(=O)c1ccccc1 [Compound 12b, N’-(3-benzoyl-4-oxothiazolidin-2-ylidene)-2,3-dioxo-1,2,3,4-tetrahydroquinoxaline-6-sulfonohydrazide]
melting point: 290 to 292 °C | IC50 (PARP-1): 40.5 ± 2.06 nM

O=C(c1cc(Cc2n[nH]c(=O)c3ccccc23)ccc1F)N1CCN(C(=O)C2CC2)CC1 [Olaparib, reference compound]
IC50 (MDA-MB-436): 8900 nM and 8630 nM
